Assay results from ChEMBL document CHEMBL1201862, “PubChem BioAssay data set” (2004).
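Briefly, cells in 96-well plates were exposed to five compound concentrations for 48 h, and endpoints were estimated by linear interpolation. Here, GI50 denotes the concentration required for 50% inhibition of growth.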 Active and inactive are the calls of the source. Rule as the data show it: active = GI50 up to about 1.1 µM and inactive = higher.

Experiments:
Experiment in all cases: NCI anticancer screen, dose series, 48 h
MDA-N = tested on: MDA-N
RPMI-8226 = tested on: RPMI-8226
M14 = tested on: M14
OVCAR-3 = tested on: OVCAR-3
CCRF-CEM = tested on: CCRF-CEM
MDA-MB-231 = tested on: MDA-MB-231
UO-31 = tested on: UO-31
Hs-578T = tested on: Hs-578T
786-0 = tested on: 786-0
NCI-H460 = tested on: NCI-H460
IGROV-1 = tested on: IGROV-1
SN12C = tested on: SN12C
NCI-H226 = tested on: NCI-H226
UACC-257 = tested on: UACC-257
K562 = tested on: K562
SF-295 = tested on: SF-295
SK-OV-3 = tested on: SK-OV-3
TK-10 = tested on: TK-10
SK-MEL-2 = tested on: SK-MEL-2

Measured: GI50

COc1ccc(/C=C2\C[C@H]3[C@@H]4CC=C5C[C@@H](O)CC[C@]5(C)[C@H]4CC[C@]3(C)\C2=N\O)cc1
inactive: MDA-N 18.8 µM | RPMI-8226 2.26 µM | M14 12.7 µM | OVCAR-3 6.89 µM | CCRF-CEM 4.58 µM | MDA-MB-231 35.2 µM | UO-31 14.3 µM | Hs-578T 10 µM | 786-0 14.3 µM | NCI-H460 34.4 µM | IGROV-1 38.2 µM | SN12C 18.1 µM | NCI-H226 19.3 µM | UACC-257 7.21 µM | K562 4.85 µM | SF-295 6.98 µM | SK-OV-3 34.9 µM | TK-10 27.6 µM | SK-MEL-2 15.6 µM

COc1ccc(/C=C2\CCC(C)C3=C2NC(=S)NC3c2ccc(OC)c(OC)c2)cc1OC (stereo not drawn)
inactive: MDA-N 3.83 µM | RPMI-8226 5.16 µM | M14 19.5 µM | OVCAR-3 24.4 µM | CCRF-CEM 8.95 µM | MDA-MB-231 18.2 µM | UO-31 12.6 µM | Hs-578T 30.8 µM | 786-0 22.3 µM | NCI-H460 41.8 µM | IGROV-1 13.6 µM | SN12C 24.9 µM | NCI-H226 > 78 µM | UACC-257 > 31.6 µM | K562 3.99 µM | SF-295 12 µM | SK-OV-3 29.9 µM | TK-10 19.7 µM | SK-MEL-2 26.5 µM

Nc1[nH]c(=S)[nH]c(=O)c1/N=N/c1c(Br)cc(S(N)(=O)=O)cc1Br
inactive: MDA-N > 100 µM | RPMI-8226 > 100 µM | M14 > 100 µM | OVCAR-3 > 100 µM | CCRF-CEM > 100 µM | MDA-MB-231 > 100 µM | UO-31 > 100 µM | Hs-578T > 100 µM | 786-0 > 100 µM | NCI-H460 > 100 µM | IGROV-1 > 100 µM | SN12C > 100 µM | NCI-H226 > 100 µM | UACC-257 > 100 µM | K562 > 100 µM | SF-295 > 100 µM | SK-OV-3 > 100 µM | TK-10 > 100 µM | SK-MEL-2 > 100 µM

C[C@]12CC[C@H]3[C@@H](CC=C4C[C@@H](O)CC[C@@]43C)[C@@H]1CC[C@@H]2N(CCO)CCO
inactive: MDA-N 45.9 µM | RPMI-8226 > 100 µM | M14 48.4 µM | OVCAR-3 34.8 µM | CCRF-CEM 46.2 µM | MDA-MB-231 > 100 µM | UO-31 51.8 µM | Hs-578T 45.2 µM | 786-0 19.7 µM | NCI-H460 33.2 µM | IGROV-1 50.7 µM | SN12C 33 µM | NCI-H226 > 100 µM | UACC-257 52.6 µM | K562 71.9 µM | SF-295 57.5 µM | SK-OV-3 23.3 µM | TK-10 42.3 µM | SK-MEL-2 76.2 µM

COc1ccc(CNC(=O)[C@H](Cc2ccc(O)cn2)NC(C)=O)cc1OC
inactive: MDA-N > 100 µM | RPMI-8226 > 100 µM | M14 > 100 µM | OVCAR-3 > 100 µM | CCRF-CEM > 100 µM | MDA-MB-231 > 100 µM | UO-31 > 100 µM | Hs-578T > 74.5 µM | 786-0 > 100 µM | NCI-H460 > 100 µM | IGROV-1 > 100 µM | SN12C > 100 µM | NCI-H226 > 100 µM | UACC-257 > 100 µM | K562 > 100 µM | SF-295 > 100 µM | SK-OV-3 > 100 µM | TK-10 > 100 µM | SK-MEL-2 > 100 µM

O=C(NO)c1ccc(OCc2ccccc2)cc1
inactive: MDA-N 25.9 µM | RPMI-8226 12 µM | M14 47.6 µM | OVCAR-3 9.95 µM | CCRF-CEM 6.89 µM | MDA-MB-231 26.8 µM | UO-31 22.2 µM | Hs-578T 65.3 µM | 786-0 16.9 µM | NCI-H460 19.5 µM | IGROV-1 14.3 µM | SN12C 43.4 µM | NCI-H226 > 100 µM | UACC-257 29.4 µM | K562 37.7 µM | SF-295 26.2 µM | SK-OV-3 37.2 µM | TK-10 23.7 µM | SK-MEL-2 30.3 µM

CCN(CC)Cc1nc(C2CCC([N+](=O)[O-])O2)no1 (stereo not drawn)
inactive: MDA-N 17.4 µM | RPMI-8226 31.3 µM | M14 14.5 µM | OVCAR-3 23.8 µM | CCRF-CEM 31.9 µM | MDA-MB-231 26.7 µM | UO-31 > 100 µM | Hs-578T 31.6 µM | 786-0 40 µM | NCI-H460 20.5 µM | IGROV-1 41.5 µM | SN12C 47.1 µM | NCI-H226 67.8 µM | UACC-257 19.9 µM | K562 36.2 µM | SF-295 30.1 µM | SK-OV-3 > 100 µM | TK-10 > 100 µM | SK-MEL-2 21.7 µM
